A word on the IC50: it is the concentration that gives 50% inhibition.

The target in this test is T1, full length SGK1 (Homo sapiens, UniProt O00141).
T1 construct: 125 μM full length SGK1 (Life Technologies Part #PR7358A); purchased Life Technologies PR7358A
T1 sequence (O00141 1-431): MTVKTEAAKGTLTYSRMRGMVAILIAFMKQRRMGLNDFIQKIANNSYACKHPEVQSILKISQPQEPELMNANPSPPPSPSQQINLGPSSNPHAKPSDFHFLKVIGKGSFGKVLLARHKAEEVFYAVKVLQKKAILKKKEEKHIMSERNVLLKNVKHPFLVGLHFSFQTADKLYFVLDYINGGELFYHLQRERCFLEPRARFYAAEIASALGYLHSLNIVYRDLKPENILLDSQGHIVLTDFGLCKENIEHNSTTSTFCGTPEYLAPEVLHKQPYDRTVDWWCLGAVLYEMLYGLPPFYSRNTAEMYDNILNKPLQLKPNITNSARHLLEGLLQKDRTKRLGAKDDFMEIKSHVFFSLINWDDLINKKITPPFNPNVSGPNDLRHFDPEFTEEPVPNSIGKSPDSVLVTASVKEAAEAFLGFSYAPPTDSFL
Description: SGK1 inhibition Assay A (Caliper LabChip electrophoretic separation of fluorescent peptide substrate and phosphorylated product). The class given is biochemical. As to conditions: Assay A; 20 μM ATP, 40 min incubation; read-out: SGK1 IC50.
`Cc1ccc(C(=O)N[C@@H]2CCCN(c3cc(C4=CCN(S(C)(=O)=O)C4)n4ncnc(N)c34)C2)s1` [Example 124, (R)—N-(1-(4-amino-7-(1-(methylsulfonyl)-2,5-dihydro-1H-pyrrol-3-yl)pyrrolo[2,1-f][1,2,4]triazin-5-yl)piperidin-3-yl)-5-methylthiophene-2-carboxamide]: the IC50 came out at 2 nM.

Consider `Nc1ncnn2c(-c3ccc(OC(F)F)nc3)cc(N3CCC[C@@H](NC(=O)c4ccc(C(F)F)s4)C3)c12` [Example 528, (R)-N-(1-(4-amino-7-(6-(difluoromethoxy)pyridin-3-yl)pyrrolo[2,1-f][1,2,4]triazin-5-yl)piperidin-3-yl)-5-(difluoromethyl)thiophene-2-carboxamide], for which the IC50 was 139 nM.

Regarding `CC(=O)N1CC=C(c2cc(N3CCC[C@@H](NC(=O)c4sc(-c5ccnc(C(F)F)c5)cc4OCCN(C)C)C3)c3c(N)ncnn23)C1` [Example 555, (R)-N-(1-(7-(1-acetyl-2,5-dihydro-1H-pyrrol-3-yl)-4-aminopyrrolo[2,1-f][1,2,4]triazin-5-yl)piperidin-3-yl)-5-(2-(difluoromethyl)pyridin-4-yl)-3-(2-(dimethylamino)ethoxy)thiophene-2-carboxamide], the IC50 turned out to be 7 nM.

With `CC(=O)N1CC=C(c2cc(N3CCC[C@@H](NC(=O)c4csnn4)C3)c3c(N)ncnn23)C1` [Example 449, (R)-N-(1-(7-(1-acetyl-2,5-dihydro-1H-pyrrol-3-yl)-4-aminopyrrolo[2,1-f][1,2,4]triazin-5-yl)piperidin-3-yl)-1,2,3-thiadiazole-4-], the IC50 stood at 34 nM.

On to `CC(=O)N1CC=C(c2cc(N3CCC[C@@H](NC(=O)c4cccc(C#N)c4)C3)c3c(N)ncnn23)C1` [Example 495, (R)-N-(1-(7-(1-acetyl-2,5-dihydro-1H-pyrrol-3-yl)-4-aminopyrrolo[2,1-f][1,2,4]triazin-5-yl)piperidin-3-yl)-3-cyanobenzamide], for which the IC50 is 87 nM.

As for `NC(=O)c1ncc(-c2cc(N3CCC[C@@H](NC(=O)c4ccc(C(F)F)s4)C3)c3c(N)ncnn23)cc1C(F)(F)F` [Example 525], the IC50 was 26 nM.

Turning to `Cc1cc(-c2cc(N3CCC[C@@H](NC(=O)c4ccc(C(F)F)s4)C3)c3c(N)ncnn23)cnc1C#N` [Example 522], the IC50 is 17 nM.

Consider `COC(=O)N1CC=C(c2cc(N3CCC[C@@H](NC(=O)c4sc(Cl)cc4OC4CCN(C(C)=O)CC4)C3)c3c(N)ncnn23)C1` [Example 565, methyl (R)-3-(5-(3-(3-((1-acetylpiperidin-4-yl)oxy)-5-chlorothiophene-2-carboxamido)piperidin-1-yl)-4-aminopyrrolo[2,1-f][1,2,4]triazin-7-yl)-2,5-dihydro-1H-pyrrole-1-carboxylate], for which the IC50 amounted to 3 nM.

Consider `NC(=O)c1ccc(-c2cc(N3CCC[C@@H](NC(=O)c4sc(Cl)cc4OC4CC5(CNC5)C4)C3)c3c(N)ncnn23)cn1` [Example 592, (R)-5-(5-(3-(3-((2-azaspiro[3.3]heptan-6-yl)oxy)-5-chlorothiophene-2-carboxamido)piperidin-1-yl)-4-aminopyrrolo[2,1-f][1,2,4]triazin-7-yl)picolinamide], for which the IC50 came to 0.5 nM.

With `CN(C)CCOc1cc(C2CC2)sc1C(=O)N[C@@H]1CCCN(c2cc(-c3ccc(C(N)=O)c(F)c3)n3ncnc(N)c23)C1` [Example 373, (R)-N-(1-(4-amino-7-(4-carbamoyl-3-fluorophenyl)pyrrolo[2,1-f][1,2,4]triazin-5-yl)piperidin-3-yl)-5-cyclopropyl-3-(2-(dimethylamino)ethoxy) thiophene-2-carboxamide], the IC50 stood at 2 nM.

Take `CC(=O)N1CC=C(c2cc(N3CCC[C@@H](NC(=O)c4sc(Cl)cc4OC4CCNC(C)(C)C4)C3)c3c(N)ncnn23)C1` (mixture of isomers) [Example 627, N-((R)-1-(7-(1-acetyl-2,5-dihydro-1H-pyrrol-3-y1)-4-aminopyrrolo[2,1-f][1,2,4]triazin-5-yl)piperidin-3-y1)-5-chloro-3-((2,2-dimethylpiperidin-4-yl)oxy)thiophene-2-carboxamide]: the IC50 worked out at 10 nM.

As to `Nc1ncnn2c(-c3ccc(=O)n(C(F)F)c3)cc(N3CCC[C@@H](NC(=O)c4ccc(C(F)F)s4)C3)c12` [Example 527, (R)-N-(1-(4-amino-7-(1-(difluoromethyl)-6-oxo-1,6-dihydropyridin-3-yl)pyrrolo[2,1-f][1,2,4]triazin-5-yl)piperidin-3-yl)-5-(difluoromethyl)thiophene-2-carboxamide], the IC50 came to 148 nM.

As to `N#Cc1ccc(-c2cc(N3CCC[C@@H](NC(=O)c4sc(Cl)cc4OCC4CCNCC4)C3)c3c(N)ncnn23)cn1` [Example 641, (R)-N-(1-(4-amino-7-(6~cyanopyridin-3-y1)pyrrolo[2,1-f][1,2,4]triazin-5-y1)piperidin-3-yl)-5-chloro-3-(piperidin-4-ylmethoxy)thiophene-2-carboxamide], the IC50 turned out to be 0.9 nM.

In the case of `Cc1cccc(C(=O)N[C@@H]2CCCN(c3cc(-c4ccc(S(C)(=O)=O)cc4)n4ncnc(N)c34)C2)c1` [Example 23, (R)-N-(1-(4-amino-7-(4-(methylsulfonyl)phenyl)pyrrolo[2,1-f][1,2,4]triazin-5-yl)piperidin-3-yl)-3-methylbenzamide], the IC50 turned out to be 11 nM.

`COC(=O)N1CC=C(c2cc(N3CCC[C@@H](NC(=O)c4sc(Cl)cc4OCCN4CCC(F)(F)CC4)C3)c3c(N)ncnn23)C1` [Example 284, methyl (R)-3-(4-amino-5-(3-(5-chloro-3-(2-(4,4-difluoropiperidin-1-yl)ethoxy)thiophene-2-carboxamido)piperidin-1-yl)pyrrolo[2,1-f][1,2,4]triazin-7-yl)-2,5-dihydro-1H-pyrrole-1-carboxylate]: the IC50 was 18 nM.

For the compound `CC(=O)N1CC=C(c2cc(N3CCC[C@@H](NC(=O)c4sc(Cl)cc4OC4CN(C)C4)C3)c3c(N)ncnn23)C1` [Example 576, (R)-N-(1-(7-(1-acetyl-2,5-dihydro-1H-pyrrol-3-yl)-4-aminopyrrolo[2,1-f][1,2,4]triazin-5-yl)piperidin-3-yl)-5-chloro-3-((1-methylazetidin-3-yl)oxy)thiophene-2-carboxamide], the IC50 was 7 nM.

For the compound `CC(=O)N1CC=C(c2cc(N3CCC[C@@H](NC(=O)c4cccc(N5CC6(CN(C)C6)C5)n4)C3)c3c(N)ncnn23)C1` [Example 784, (R)-N-(1-(7-(1-acetyl-2,5-dihydro-1H-pyrrol-3-yl)-4-aminopyrrolo[2,1-f][1,2,4]triazin-5-yl)piperidin-3-yl)-6-(6-methyl-2,6-diazaspiro[3.3]heptan-2-yl)picolinamide], the IC50 stood at 20 nM.

For the compound `CC(=O)N1CC=C(c2cc(N3CCC[C@@H](NC(=O)c4sc(Cl)cc4OCC4CCCN4)C3)c3c(N)ncnn23)C1` (single isomer, unassigned) [Example 391D], the IC50 came to 2 nM.

For `Cc1cc(C(=O)N[C@@H]2CCCN(c3cc(-c4ccc(S(C)(=O)=O)cc4)n4ncnc(N)c34)C2)cc(C)n1` [Example 35, (R)-N-(1-(4-amino-7-(4-(methylsulfonyl)phenyl)pyrrolo[2,1-f][1,2,4]triazin-5-yl)piperidin-3-yl)-2,6-dimethylisonicotinamide], the concentration for half-maximal inhibition (IC50) stood at 21 nM.

As to `COC(=O)N1CCC(c2cc(N3CCC[C@@H](NC(=O)c4sc5ccccc5c4OC4CN(C(=O)OC(C)(C)C)C4)C3)c3c(N)ncnn23)C1` (stereo partly drawn) [Example 671, methyl 3-(4-amino-5-((R)-3-(3-((1-(tert-butoxycarbonyl)azetidin-3-yl)oxy)benzo[b]thiophene-2-carboxamido)piperidin-1-yl)pyrrolo[2,1-f][1,2,4]triazin-7-yl)pyrrolidine-1-carboxylate], the IC50 is 67 nM.

Consider `CC(=O)N1CC=C(c2cc(N3CCCC(NC(=O)c4sc(Cl)cc4OCC4CCNC4)C3)c3c(N)ncnn23)C1` (single isomer, unassigned) [Example 639], for which the IC50 came to 4 nM.

On to `Nc1ncnn2c(-c3cn(CCC(=O)O)nn3)cc(N3CCC[C@@H](NC(=O)c4ccc(Cl)s4)C3)c12` [Example 864, (R)-3-(4-(4-amino-5-(3-(5-chlorothiophene-2-carboxamido)piperidin-1-yl)pyrrolo[2,1-f][1,2,4]triazin-7-yl)-1H-1,2,3-triazol-1-yl)propanoic acid], for which the IC50 was 120 nM.

For the compound `CC(=O)N1CC=C(c2cc(N3CCC[C@@H](NC(=O)c4ccc(C#N)cc4)C3)c3c(N)ncnn23)C1` [Example 494, (R)-N-(1-(7-(1-acetyl-2,5-dihydro-1H-pyrrol-3-yl)-4-aminopyrrolo[2,1-f][1,2,4]triazin-5-yl)piperidin-3-yl)-4-cyanobenzamide], the IC50 came out at 38 nM.

With `Nc1ncnn2c(C3=CCN(C(=O)[C@H]4CCOC4)C3)cc(N3CCC[C@@H](NC(=O)c4ccc(Cl)s4)C3)c12` [Example 888, N-((R)-1-(4-amino-7-(1-((S)-tetrahydrofuran-3-carbonyl)-2,5-dihydro-1H-pyrrol-3-yl)pyrrolo[2,1-f][1,2,4]triazin-5-yl)piperidin-3-y1)-5-chlorothiophene-2-carboxamide], the IC50 came to 6 nM.

Regarding `Nc1ncnn2c(-c3cn(CC(=O)O)nn3)cc(N3CCC[C@@H](NC(=O)c4ccc(Cl)s4)C3)c12` [Example 867, (R)-2-(4-(4-amino-5-(3-(5-chlorothiophene-2-carboxamido)piperidin-1-yl)pyrrolo[2,1-f][1,2,4]triazin-7-yl)-1H-1,2,3-triazol-1-yl)acetic acid], the IC50 stood at 213 nM.

The record behind these values is US20260250290A1 (BRISTOL-MYERS SQUIBB COMPANY, priority 2023, published 2026).
